{"source": "paper PMC6410080", "about": "(Viruses, 2019)", "key": {"SFV [1]": {"system": "SFV", "experiment": "microbe, parasite or virus in culture", "format": "cell-based, Semliki Forest virus", "conditions": "for % inhibition (SFV screen): 10 µM"}, "DENV-2": {"system": "DENV-2", "experiment": "DENV-2 infection assay / secondary screen (E protein staining)", "format": "cell-based, dengue virus serotype 2", "conditions": "for % inhibition (DENV-2 screen): 10 µM; for inhibition at 10 µM / IC50: Dengue virus, DENV2, Huh-7, 24 h; for inhibition at 10 µM: read-out: % inhibition (DENV-2 screen)"}, "HeLa Kyoto cells [2]": {"system": "HeLa Kyoto cells", "conditions": "10 µM"}, "Huh7 cells [3]": {"system": "Huh7 cells", "conditions": "10 µM"}, "[4]": {"system": "Renilla luciferase expression (protein synthesis)", "format": "cell-based"}, "in vitro [5]": {"experiment": "in vitro", "conditions": "human, % viability (SFV screen)"}, "in vitro [6]": {"experiment": "in vitro", "conditions": "human"}, "SINV": {"system": "SINV", "experiment": "microbe, parasite or virus in culture", "format": "cell-based, Sindbis virus", "conditions": "Sindbis virus, HeLa Kyoto, read-out: IC50 SINV"}, "DENV-1": {"system": "DENV-1", "experiment": "microbe, parasite or virus in culture", "format": "cell-based, dengue virus", "conditions": "Dengue virus, DENV1, Huh-7, read-out: IC50 DENV-1"}, "DENV-3": {"system": "DENV-3", "experiment": "microbe, parasite or virus in culture", "format": "cell-based, dengue virus", "conditions": "Dengue virus, DENV3, Huh-7, read-out: IC50 DENV-3"}, "ZIKV": {"system": "ZIKV", "experiment": "microbe, parasite or virus in culture", "format": "cell-based, Zika virus", "conditions": "Zika virus, Huh-7, read-out: IC50 ZIKV"}, "YF17D": {"system": "YF17D", "experiment": "organism not typed", "format": "cell-based, yellow fever 17D", "conditions": "Huh-7, read-out: IC50 YF17D"}, "HCV": {"system": "HCV", "experiment": "microbe, parasite or virus in culture", "format": "cell-based, hepatitis C virus", "conditions": "Hepatitis C virus, Huh7.5, read-out: IC50 HCV"}, "VSV VLP": {"system": "VSV VLP", "experiment": "microbe, parasite or virus in culture", "format": "cell-based, vesicular stomatitis virus", "conditions": "Vesicular stomatitis virus, HeLa Kyoto, 24 h, read-out: IC50 VSV"}, "RABV VLP": {"system": "RABV VLP", "experiment": "microbe, parasite or virus in culture", "format": "cell-based, rabies virus", "conditions": "Lyssavirus rabies, HeLa Kyoto, 24 h, read-out: IC50 RABV"}, "H5N1 VLP": {"system": "H5N1 VLP", "experiment": "microbe, parasite or virus in culture", "format": "cell-based, influenza H5N1", "conditions": "Influenza A virus, H5N1, HeLa Kyoto, 48 h, read-out: IC50 H5N1"}, "EBOV VLP": {"system": "EBOV VLP", "experiment": "microbe, parasite or virus in culture", "format": "cell-based, Ebola virus", "conditions": "Zaire ebolavirus, HeLa Kyoto, 48 h, read-out: IC50 EBOV"}, "HSV-1": {"system": "HSV-1", "experiment": "microbe, parasite or virus in culture", "format": "cell-based, herpes simplex virus 1", "conditions": "Human alphaherpesvirus 1, Vero, 8 h, read-out: IC50 HSV (Vero)"}, "VACV": {"system": "VACV", "experiment": "microbe, parasite or virus in culture", "format": "cell-based, vaccinia virus"}, "SFV [7]": {"system": "SFV", "format": "cell-based, Semliki Forest virus"}, "viruses/VLPs tested": {"system": "viruses/VLPs tested", "format": "cell-based"}, "HeLa Kyoto cells [8]": {"system": "HeLa Kyoto cells", "conditions": "human"}, "Huh7 cells [9]": {"system": "Huh7 cells", "experiment": "MTT assay, Huh7 cells"}, "[10]": {"conditions": "Huh7, 24 h, compared to DMSO-treated controls"}, "[11]": {"conditions": "Huh7, MOI 1, 24 h, compared to DMSO-treated controls"}}, "note": "Values joined by “and” are separate entries in the source; they are usually repeats but may differ in a detail not shown here. Equal entries are not always repeated. Structures can show the parent of a compound that is named as a salt. Where two headings read alike, the source gives them in different places."}
{"smiles": "COc1ccc(C[C@@H](C)NC[C@H](O)c2ccc(O)c(NC=O)c2)cc1.COc1ccc(C[C@@H](C)NC[C@H](O)c2ccc(O)c(NC=O)c2)cc1.O=C(O)/C=C/C(=O)O", "note": "[Formoterol fumarate]", "values": [{"measurement": "% inhibition (SFV screen)", "setting": "SFV [1]", "value": 86.74, "unit": "%"}, {"measurement": "% inhibition (DENV-2 screen)", "setting": "DENV-2", "value": -41.42, "unit": "%"}, {"measurement": "% viability (SFV screen)", "setting": "HeLa Kyoto cells [2]; HeLa Kyoto, 7 h, compared to DMSO-treated controls, LOPAC and Prestwick samples listed separately", "value": 97.47, "unit": "%"}, {"measurement": "% viability (DENV-2 screen)", "setting": "Huh7 cells [3]; [10]", "value": 102.07, "unit": "%"}]}
{"smiles": "CCOC(=O)N1CCN(/[N+]([O-])=N/Oc2ccc([N+](=O)[O-])cc2[N+](=O)[O-])CC1", "note": "[JS-K]", "values": [{"measurement": "% inhibition (SFV screen)", "setting": "SFV [1]", "value": 84.89, "unit": "%"}, {"measurement": "% inhibition (DENV-2 screen)", "setting": "DENV-2; [11]", "value": 84.24, "unit": "%"}, {"measurement": "% viability (SFV screen)", "setting": "HeLa Kyoto cells [2]", "value": 66.74, "unit": "%"}, {"measurement": "% viability (DENV-2 screen)", "setting": "Huh7 cells [3]; [10]", "value": 53.82, "unit": "%"}]}
{"smiles": "CC[C@H]1CN2CCc3cc(OC)c(OC)cc3[C@@H]2C[C@@H]1C[C@H]1NCCc2cc(OC)c(OC)cc21", "note": "[Emetine dihydrochloride hydrate]", "values": [{"measurement": "inhibition at 10 µM", "setting": "SFV [1]; Semliki Forest virus, M-HeLa, 7 h, read-out: % inhibition (SFV screen)", "value": 104, "unit": "%"}, {"measurement": "inhibition at 10 µM", "setting": "DENV-2", "value": 100, "unit": "%"}, {"measurement": "Renilla signal (in words)", "setting": "[4]", "value": "significantly reduced the Renilla signal"}, {"measurement": "viability at 10 µM", "setting": "in vitro [5]", "value": 104, "unit": "%"}, {"measurement": "viability at 10 µM", "setting": "in vitro [6]", "value": 51.2, "unit": "%"}]}
{"smiles": "CCSc1ccc2c(c1)N(CCCN1CCN(C)CC1)c1ccccc1S2.O=C(O)CC(O)C(=O)O.O=C(O)CC(O)C(=O)O", "note": "[Thiethylperazine dimalate]", "values": [{"measurement": "% inhibition (SFV screen)", "setting": "SFV [1]", "value": 91.68, "unit": "%"}, {"measurement": "% viability (SFV screen)", "setting": "HeLa Kyoto cells [2]", "value": 92.47, "unit": "%"}, {"measurement": "% viability (DENV-2 screen)", "setting": "Huh7 cells [3]", "value": 0.15, "unit": "%"}]}
{"smiles": "Cl.Cl.Fc1ccc(C(OCCN2CCN(CCCc3ccccc3)CC2)c2ccc(F)cc2)cc1", "note": "[GBR 12909 dihydrochloride]", "values": [{"measurement": "% inhibition (SFV screen)", "setting": "SFV [1]", "value": 75.39, "unit": "%"}, {"measurement": "% inhibition (DENV-2 screen)", "setting": "DENV-2; [11]", "value": 83.87, "unit": "%"}, {"measurement": "% viability (SFV screen)", "setting": "HeLa Kyoto cells [2]", "value": 90.30, "unit": "%"}, {"measurement": "% viability (DENV-2 screen)", "setting": "Huh7 cells [3]", "value": 38.91, "unit": "%"}]}
{"smiles": "O=C1c2c(O)ccc(O)c2C(=O)c2c(NCCNCCO)ccc(NCCNCCO)c21", "note": "[Mitoxantrone, Mitoxantrone dihydrochloride]", "values": [{"measurement": "% inhibition (SFV screen)", "setting": "SFV [1]", "value": "59.01% and 85.19%"}, {"measurement": "IC50", "setting": "SFV [1]; Semliki Forest virus, HeLa Kyoto, read-out: IC50 SFV (7 h)", "value": 7, "unit": "µM"}, {"measurement": "inhibition at 10 µM", "setting": "DENV-2", "value": 99.4, "unit": "%"}, {"measurement": "IC50", "setting": "DENV-2; read-out: IC50 DENV-2 (7 + 17 h)", "value": 2, "unit": "µM"}, {"measurement": "IC50", "setting": "DENV-2; read-out: IC50 DENV-2 (24 h)", "value": 2.1, "unit": "µM"}, {"measurement": "IC50", "setting": "SINV", "value": 9.9, "unit": "µM"}, {"measurement": "IC50", "setting": "DENV-1", "value": 5.6, "unit": "µM"}, {"measurement": "IC50", "setting": "DENV-3", "value": 6.3, "unit": "µM"}, {"measurement": "IC50", "setting": "ZIKV", "value": "~25", "unit": "µM"}, {"measurement": "IC50", "setting": "YF17D", "value": 2.2, "unit": "µM"}, {"measurement": "IC50", "setting": "HCV", "value": 2.7, "unit": "µM"}, {"measurement": "IC50", "setting": "VSV VLP", "value": 0.6, "unit": "µM"}, {"measurement": "IC50", "setting": "RABV VLP", "value": "< 0.5", "unit": "µM"}, {"measurement": "IC50", "setting": "H5N1 VLP", "value": 2.8, "unit": "µM"}, {"measurement": "IC50", "setting": "EBOV VLP", "value": 0.1, "unit": "µM"}, {"measurement": "IC50", "setting": "HSV-1", "value": 6.8, "unit": "µM"}, {"measurement": "IC50 VACV", "setting": "VACV", "value": "No inhibition"}, {"measurement": "Activity when added before SFV or 30 and 60 min after internalisation", "setting": "SFV [7]", "value": "progressive and more dramatic decrease in activity"}, {"measurement": "Time of Addition", "setting": "SFV [7]", "value": "Before and after fusion"}, {"measurement": "Viruses Inhibited", "setting": "viruses/VLPs tested", "value": "Unclear pattern"}, {"measurement": "TC50 SFV (7 h)", "setting": "HeLa Kyoto cells [8]", "value": 43.2, "unit": "µM"}, {"measurement": "TC50 SFV (7h)", "setting": "HeLa Kyoto cells [8]", "value": 43200, "unit": "µM"}, {"measurement": "% viability (SFV screen)", "setting": "HeLa Kyoto cells [2]; human", "value": 88.92, "unit": "%"}, {"measurement": "viability at 10 µM", "setting": "in vitro [5]", "value": 88.5, "unit": "%"}, {"measurement": "viability at 10 µM", "setting": "in vitro [6]", "value": 11.2, "unit": "%"}, {"measurement": "TC50 DENV-2 (7 + 17 h)", "setting": "Huh7 cells [9]; Huh7, compounds 7 h then compound-free media 17 h", "value": 7.9, "unit": "µM"}, {"measurement": "TC50 DENV-2 (24 h)", "setting": "Huh7 cells [9]; Huh7, compounds 24 h", "value": 4.6, "unit": "µM"}]}
